Laboratory results taken from patent US20110280806A1, “DYE CONJUGATE IMAGING AGENTS” (priority 2008, published 2011).

Test: Absorbance of Dye A vs cyanine dye Cy7 (diode array spectrophotometer)
Type: physicochemical
Conditions: 2.5 μM solution, DMSO diluted in PBS
Method: (a) Absorbance and fluorescence of Dye A vs Cyanine Dye Cy7.
0.1 to 0.2 mg vials of the dyes were dissolved initially in 100 μl DMSO and then diluted in PBS to the specified concentrations. Absorbance measurements were performed on 2.5 μM solutions, with a HP 8452A Diode array spectrophotometer. Fluorescence measurements were performed on 250 nM solutions, with a Varian Cary Eclipse Fluorescence Spectrophotometer at standardised instrument settings (600V PMT setting).

Structure (SMILES)	measured absorbance equates to (molar extinction) (at 748 nm)	measured absorbance equates to (molar extinction) (at 746 nm)
CCN1C(=CC=CC=CC=CC2=[N+](CCCCCC(=O)O)c3ccc(S(=O)(=O)O)cc3C2(C)C)C(C)(C)c2cc(S(=O)(=O)[O-])ccc21 [Cy7]	250,000 /M/cm	
CN1C2=C/C(=C/C=C/C3=CC4=[N+](C)c5ccccc5C4(C)C(C)(C)C3)CC(C)(C)C2(C)c2ccccc21 (centres unmarked) [Dye A, 4,4,4a,9-Tetramethyl-2-(3-(1E-4,4,4a,9-tetramethyl-4,4a-dihydro-3H-carbazol-2-ylidenyl)prop-1-enyl)-4,4a-dihydro-3H-carbazolium iodide]		260,000 /M/cm
